In US20030206914A1, “Synthetic antigens for CD1-restricted immune responses” (priority 1997, published 2003):
Entries after “also recorded” stand apart in the source; their conditions may differ. Like-named read-outs stand apart in the source and are kept apart here.

Assays:
[1] = tested on: LDN5 T cell line (CD1b-restricted); format: cell-based, human
[2] = tested on: CD8-1 T cell line (CD1c-restricted αβ); experiment: CD8-1 T cell line response; format: cell-based, human
APCs = experiment: Uptake and processing of CD1b-presented antigens by APCs; format: cell-based
Description: The uptake and processing pathway for CD1b-presented antigens was also defined. Several steps in the presentation of two related classes of CD1b-presented antigens, free and glycosylated mycolates, were examined. […] Thus, larger lipids, such as trehalose dimycolate cannot be broken down into GMM within cells. Given that the hydrophobic groove can accommodate approximately 32 CH2 units when measured in crystalline form, it is likely that the CD1 protein can open to encompass larger alkyl chains or that the chains can protrude from the groove.

[3] = tested on: DN1 T cell line (CD1b-restricted, specific for free mycolic acid); experiment: DN1 T cell line response; format: cell-based, human
Description: The role of the carbohydrate moiety of the glycolipid in T cell recognition was separately evaluated.
(§1) LDN5 was derived from the same human leprosy skin lesion that gave rise to the previously described LAM reactive T cell line LDN4 (P. A. Sieling, et al. (1995) Science 269:227). Cultures were stimulated initially with autologous GM-CSF and IL-4 treated CD1^+ monocytes and M. leprae sonicate. After establishment of LDN5, cultures were maintained in IL-2 supplemented medium and periodically stimulated with allogenic CD1^+ APCs and M. phlei sonicate (X/1000) containing GMM. […] T cell culture methods, proliferation assays and cytolysis assays were carried out according to the methods described in E. M. Beckman, et al. (1996) J. Immunol. 157:2795. All bioassays were done in triplicate and reported as mean +/−standard deviation.

CD1b = CD1b (Homo sapiens, UniProt P29016); experiment: Binding of glycolipid to CD1b
Description: Thus, CD1b binds to both natural and synthetic GMM but not to an analog that has only one long alkyl chain instead of two short alkyl chains.

[4] = tested on: CD1b transfected C1R lymphoblastoid target cells; experiment: LDN5 cytolysis assay, CD1b transfected targets; format: cell-based, human; details: E:T 25:1; targets cultured with antigen (0.5 mg/ml purified glycolipid; 5 μg/ml synthetic GMM)
Description: (§2) There was no response in the absence of antigen.
(§3) Similarly treated mock, CD1a or CD1c transfected cells were not lysed (FIG. 2B). The Na adduct of the fully synthetic GMM containing C32 mycolic acid was detected by ESI-MS analysis to be a single ion peak at m/z 681.6 (FIG. 2C). This synthetic GMM antigen lacks long chain length (compared with C80 mycolic acids of mycobacteria), cyclopropanation, double bonds and R groups, ruling out all of these natural chemical variations of the mycolic acid moiety as necessary antigenic determinants. The discovery of a synthetic CD1-restricted antigen with a simple and well defined structure allowed the systematic study of individual molecular features of the antigen that determined the specificity of the T cell response.
as §1, with “157:2795. All bioassays were done in triplicate and reported as mean +/−standard deviation.” left out

[5] = tested on: mock, CD1a or CD1c transfected C1R cells; experiment: LDN5 cytolysis assay, control transfectants; format: cell-based, human; details: E:T 25:1; similarly treated with antigen
Description: as §2, §3
as §1, with “157:2795. All bioassays were done in triplicate and reported as mean +/−standard deviation.” left out

[6] = tested on: 14 other T cell lines including SP-F3 and DN6
[7] = tested on: CD1a, CD1b and MHC class I restricted T cell lines; experiment: Stimulation of CD1a, CD1b and MHC class I restricted T cell lines (mitogenicity control); format: cell-based
[8] = tested on: CD1c-restricted T cell lines; experiment: Recognition by other CD1c-restricted T cell lines from different donors; format: cell-based, human; details: lines derived from different donors
Description: Based on a survey of known mycobacterial phospholipids, the leading candidate structure for this antigen was that of a glycosyl phosphopolyprenol (GPP). See, Besra, G. S., et al. (1994) Proc. Natl. Acad. Sci. USA 91:12735-12739. The fragmentation pattern was consistent with the identification of the antigenic M. avium as a GPP, presuming that the lipid of m/z 420 was the hexaprenyl component of a fully saturated hexose phosphohexaprenol. To assess this, the ability of the T cell line CD8-1 to recognize purified mycobacterial GPPs was tested. The structure of Myc-PL, a mannosyl phosphopolyprenol esterified to a mycolic acid, had been determined in detail. Besra, G. S., et al. (1994) supra. Pure myc-PL was cleaved with strong base to yield free mycolate and mannosyl phosphoheptaprenol (MPP). Besra, G. S., et al. (1994) supra. […] Rush, J. S., et al.(1993) J. Biol. Chem. 268:13110-13117. […] Thus, these studies established that CD1c-restricted T cells specifically recognized GPPs from four different sources, including both natural and synthetic analogs of this structure.
All three CD1-restricted lines preferentially recognized the α-saturated MPDs typical of eukaryotes more potently than the α-unsaturated GPPs typical of prokaryotes. Krag, S. S. (1998) Biochem. Biophys. Res. Comm. 243:1-5. […]

[9] = cytokine activated macrophages / CD1+ APCs

CD1b, sequence (P61769 21-119): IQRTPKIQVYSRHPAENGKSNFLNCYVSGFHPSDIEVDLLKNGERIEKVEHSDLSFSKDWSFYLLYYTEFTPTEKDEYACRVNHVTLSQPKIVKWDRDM
CD1b, sequence (P29016 18-303): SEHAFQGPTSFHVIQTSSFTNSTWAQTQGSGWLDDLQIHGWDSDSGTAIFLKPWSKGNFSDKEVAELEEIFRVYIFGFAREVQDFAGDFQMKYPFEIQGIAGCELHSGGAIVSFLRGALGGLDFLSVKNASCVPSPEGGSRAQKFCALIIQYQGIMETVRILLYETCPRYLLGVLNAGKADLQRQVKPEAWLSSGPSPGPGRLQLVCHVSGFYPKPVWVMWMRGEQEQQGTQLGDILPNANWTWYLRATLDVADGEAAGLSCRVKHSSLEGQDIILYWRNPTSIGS

## α,α trehalose dimycolate [purified cord factors from M. phlei, reference compound]
[1]; [9]
  LDN5 proliferative response to antigen: not antigenic for LDN5

## CC(C)=CCCC(C)=CCCC(C)=CCCC(C)=CCCC(C)=CCCC(C)=CCCC(C)=CCOP(=O)(O)O[C@@H]1O[C@H](CO)[C@@H](O)[C@H](O)[C@@H]1O (relative stereo) [semi-synthetic MPP, β-D-mannopyranosyl-1-monophosphoryl-(poly-cis, di-trans, α-unsaturated) heptaprenol]
[2]
  CD8-1 response to antigen: responded significantly

## mannosyl phosphoheptaprenol [MPP]
[2]
  CD8-1 response to antigen: did respond to the pure MPP

## trehalose dimycolate [TDM, reference compound]
APCs
  cleavage by APCs to antigenic free mycolates or GMM: unable to cleave

## glucose monomycolate [GMM]
[3]
  DN1 response to antigen: not to GMM
CD1b; pH 4.0
  binding to CD1b at pH 4.0: occurring at pH 4.0
CD1b; pH 7.0
  binding to CD1b at pH 7.0: not at pH 7.0
[4]
  lysis of CD1b transfected C1R target cells by LDN5: lysed CD1b transfected C1R lymphoblastoid target cells
APCs
  T cell recognition after treating APCs with fixing or endosome pH neutralizing agents: blocked by agents that fix APC membranes or neutralized the pH of endosomes
  rate of uptake by APCs: taken up by APCs at the same rate
[5]
  lysis of mock, CD1a or CD1c transfectants by LDN5: not similarly treated mock, CD1a or CD1c transfectants
[1]
  LDN5 proliferative response to antigen: stimulated LDN5; also recorded: proliferated at similar doses
[6]
  proliferative response of other T cell lines: not 14 other T cell lines tested

## mannosyl phosphodolichol [MPD]
[2]
  CD8-1 response to antigen: recognized the 2,3 dihydro analog, mannosyl phosphodolichol (MPD), at much lower concentration
[7]
  stimulation of CD1a, CD1b and MHC class I restricted T cell lines: did not stimulate
[8]
  recognition by two other CD1c-restricted T cell lines: recognized MPD

## mannose monomycolate
[1]
  LDN5 proliferative response to antigen: responded very weakly or not at all

## CCCCCCCCCCCCCCCCCCCCCCCCCCCCCC(=O)OC[C@H]1OC(O)[C@H](O)[C@@H](O)[C@@H]1O (stereo partly drawn) [G6T, Glucose-6-o-triacontanoate]
CD1b; pH not given
  binding to CD1b: did not bind to CD1b

## CC(C)=CCCC(C)=CCCC(C)=CCCC(C)=CCCC(C)=CCCC(C)=CCCC(C)=CCCC(C)=CCCC(C)=CCCC(C)=CCCC(C)=CCCC(C)=CCCC(C)=CCCC(C)=CCCC(C)=CCCC(C)=CCCC(C)=CCCC(C)=CCCC(C)CCOP(=O)(O)O[C@@H]1O[C@H](CO)[C@@H](O)[C@H](O)[C@@H]1O (relative stereo) [β-D-mannopyranosyl-1-monophosphoryl-(poly-cis, di-trans, α-saturated) nondecaprenol]
[2]
  CD8-1 response to antigen: responded significantly

## CCCCCCCCCCCCCC(O)CC(=O)OC[C@@H](O)[C@@H](O)[C@H](O)[C@@H](O)C=O (stereo partly drawn) [glucose 6-O-3-hydroxypalmitate]
[1]; [9]
  LDN5 proliferative response to antigen: did not respond

## galactose monomycolate
[1]
  LDN5 proliferative response to antigen: responded very weakly or not at all
